Source: patent US5985878A, “Angiogenesis inhibiting pyridazinamines” (Janssen Pharmaceuticals, N.V., priority 1996, dated 1999)

Tests used:
rat aortic ring = assay: Angiogenesis inhibitory activity in vitro, rat aortic ring model (microvessel formation); type: cell-based; details: 192 h, microvessel area following eight days in culture
Method: Angiogenosis inhibitory activity was measured in vitro using the rat aortic ring model of angiogenesis as described by Nicosia, R. F. and Ottinetti in "Laboratory Investigation", vol. 63, p. 115, 1990. The ability of compounds to inhibit microvessel formation was compared to velicle-treatedcontrol rings.

angiogenesis = assay: In vivo angiogenesis inhibitory activity, Matrigel model; parameters: species or system warm-blooded animal; details: po, administered orally
Method: The in vivo angiogenesis inhibitory activity was measured using the Matrigel model, as described in U.S. Pat. No. 5,382,514. Briefly, a liquid, containing extracts of murine basement membrane and an angiogenic growth factor (e.g. VEGF, bFGF, aFGF), was injected in a warm-blooded animal where it fonns a gel matrix. After a period of time, the gel is recovered from the anmimal and angiogenesis is quantitated. The test compounds were administered orally at a dose of 0.1 mg/kg.

Compound | IC50 (rat aortic ring) [nM] | inhibition in vivo at 0.1 mg/kg (angiogenesis) [%]
Cc1nsc(-c2ccc(N3CCN(c4cc(Cl)ccc4Cl)CC3)nn2)n1 [Compound 27] | 0.2 | 
Cc1nsc(-c2ccc(N3CCN(c4cc(Cl)cc(Cl)c4)CC3)nn2)n1 [Compound 23] | 0.05 | 
Cc1nsc(-c2ccc(N3CCN(C4CCN(c5cccc(C(F)(F)F)c5)CC4)CC3)nn2)n1 [Compound 44] | 0.7 | 
Cc1nsc(-c2ccc(N3CCCC(c4cccc(C(F)(F)F)c4)CC3)nn2)n1 (stereo not shown) [Compound 32] | 0.9 | 
Cc1nsc(-c2ccc(N3CCN(c4cccc(C(F)(F)F)c4)CC3)nn2)n1 [Compound 1, 3-(3-methyl-1,2,4-thiadiazol-5-yl)-6-[4-[3-(trifluoromethyl)phenyl]-1-piperazinyl]pyridazine] | 0.3 | 
Cc1nsc(-c2ccc(N3CCN(c4cccc(Cl)c4Cl)CC3)nn2)n1 [Compound 24] | 0.3 | 
Cc1nsc(-c2ccc(N3CCN(c4cccc(Cl)c4)CC3)nn2)n1 [Compound 2, 3-[4-(3-chlorophenyl)-1-piperazinyl]-6-(3-methyl-1,2,4-thiadiazol-5-yl)pyridazine] | 0.6 | > 70
Cc1nsc(-c2ccc(N3CCC(OC(c4ccccc4)c4ccccc4)CC3)nn2)n1 [Compound 54] |  | > 70
Cc1nsc(-c2ccc(N3CCN(c4cccc(Cl)c4)C(C)C3)nn2)n1 (stereo not shown) [Compound 13] | 0.8 | 
Cc1nsc(-c2ccc(N3CCC(COc4cccc(Cl)c4)CC3)nn2)n1 [Compound 56] | 0.9 | 
Cc1nsc(-c2ccc(N3C4CCC3CC(c3cccc(C(F)(F)F)c3)C4)nn2)n1 (stereo not shown) [Compound 177] | 0.7 | > 70
Cc1nsc(-c2ccc(N3CCC(OCc4cccc(C(F)(F)F)c4)CC3)nn2)n1 [Compound 48] | 0.5 | 
Cc1nsc(-c2ccc(N3CCC(c4cccc(C(F)(F)F)c4)C3)nn2)n1 (stereo not shown) [Compound 30] |  | > 70
Cc1nsc(-c2ccc(N3CC=C(c4cccc(C(F)(F)F)c4)CC3)nn2)n1 [Compound 66] | 0.3 | 
Cc1nsc(-c2ccc(N3CCC(c4cccc(C(F)(F)F)c4)CC3)nn2)n1 [Compound 31, 3-(3-methyl-1,2,4-thiadiazol-5-yl)-6-[4-[3-(trifluoromethyl)phenyl]-1-piperidinyl]pyridazine] | 0.052 | > 70
Cc1nsc(-c2ccc(N3CCC(Nc4cccc(C(F)(F)F)c4)CC3)nn2)n1 [Compound 47] |  | > 70
Cc1nsc(-c2ccc(N3CCC(N4CCN(c5cccc(C(F)(F)F)c5)CC4)CC3)nn2)n1 [Compound 53, 3-(3-methyl-1,2,4-thiadiazol-5-yl)-6-[4-[4-[3-(trifluoromethyl)phenyl]-1-piperazinyl]-1-piperidinyl]pyridazine] | 0.3 | > 70
Cc1nsc(-c2ccc(N3CCN(c4ccc(Br)c(C(F)(F)F)c4)CC3)nn2)n1 [Compound 88, 3-[4-[4-bromo-3-(trifluoromethyl)phenyl]-1-piperazinyl]-6-(3-methyl-1,2,4-thiadiazol-5-yl)pyridazine] |  | > 70

More lines, main results first:

IC50 (rat aortic ring) [nM] | Compound | inhibition in vivo at 0.1 mg/kg (angiogenesis) [%]
0.5 | Cc1nsc(-c2ccc(N3CCN(c4cccc(Br)c4)CC3)nn2)n1 [Compound 72] | 
0.8 | Cc1nsc(-c2ccc(N3CCN(c4cc(Cl)c(Cl)cc4Cl)CC3)nn2)n1 [Compound 82] | > 70
0.2 | Cc1nsc(-c2ccc(N3CCC(Cc4cccc(C(F)(F)F)c4)CC3)nn2)n1 [Compound 132] | 
0.3 | Cc1nsc(-c2ccc(N3CCC(N(C)c4cccc(C(F)(F)F)c4)CC3)nn2)n1 [Compound 142] | 
< 0.1 | Cc1nsc(-c2ccc(N3CCN(c4ccc(Br)cc4[N+](=O)[O-])CC3)nn2)n1 [Compound 85] | 
0.05 | Cc1nsc(-c2ccc(N3CCN(c4cc(C(F)(F)F)cc(C(F)(F)F)c4)CC3)nn2)n1 [Compound 74] | > 70
0.2 | Cc1nsc(-c2ccc(N3CCC(C(C#N)c4cccc(Cl)c4)CC3)nn2)n1 (stereo not shown) [Compound 138] | > 70
0.5 | Cc1nsc(-c2ccc(N3CCC(Sc4cccc(Cl)c4)CC3)nn2)n1 [Compound 139] | 
0.2 | Cc1nsc(-c2ccc(N3CC[C@@H](c4cccc(C(F)(F)F)c4)[C@@H](C)C3)nn2)n1 (relative stereo) [Compound 108] | 
0.2 | Cc1nsc(-c2ccc(N3CCC(N4CCN(c5cc(Cl)cc(Cl)c5)CC4)CC3)nn2)n1 [Compound 160] | 
0.5 | Cc1nsc(-c2ccc(N3CCC(N(C)Cc4cccc(C(F)(F)F)c4)CC3)nn2)n1 [Compound 137] | 
0.8 | Cc1nsc(-c2ccc(N3CCC(Nc4cccc(C(F)(F)F)c4)C3)nn2)n1 (stereo not shown) [Compound 169] | 
0.6 | COc1ccc(Cl)c(N2CCN(c3ccc(-c4nc(C)ns4)nn3)CC2)c1 [Compound 75] | > 70
< 0.1 | Cc1nsc(-c2ccc(N3CCC(N4CCN(c5cc(C(F)(F)F)cc(C(F)(F)F)c5)CC4)CC3)nn2)n1 [Compound 161] | 
0.2 | Cc1nsc(-c2ccc(N3CCC(c4cc(C(F)(F)F)cc(C(F)(F)F)c4)CC3)nn2)n1 [Compound 111] | 
0.2 | Cc1nsc(-c2ccc(N3CCN(c4ccccc4C(F)(F)F)CC3)nn2)n1 [Compound 76] | 
0.6 | Cc1nsc(-c2ccc(N3CCC(C(O)c4cccc(C(F)(F)F)c4)CC3)nn2)n1 (stereo not shown) [Compound 134] | > 70
0.3 | Cc1nsc(-c2ccc(N3CCC(C(=O)c4cccc(C(F)(F)F)c4)CC3)nn2)n1 [Compound 130] | 
0.5 | Cc1nsc(-c2ccc(N3CCC(C(=O)c4cccc(Cl)c4)CC3)nn2)n1 [Compound 135] | 
